According to US20040043403A1, “Process for determining the biological activity of epidermal growth factor receptor tyrosine kinase inhibitors” (priority 2000, published 2004):

Experiments:
[1] = test system: WBC; experiment: Real time RT-PCR gene expression in White Blood Cells; format: cell-based, human; conditions: 3 μM, 24 h
Method: The leucocyte-enriched fraction (buffy coat) is obtained from a healthy donor. 10 ml buffy coat, diluted with 25 ml RPMI 1640 medium is layered on 4 ml Ficoll-Paque (Pharmacia) and centrifuged at 1′200×g for 15 min. The White Blood Cell (WBC) layer at the interface is removed, the cells are washed 2 times with RPMI 1640 medium to remove platelets. WBCs are cultured in RPMI 1640 medium plus 10% Fetal Calf Serum (FCS) in T-150 flask, 100 million cells/100 ml and are incubated for 1 h at 37° C. before treatment. 20 million tissue culture cells (about 80% confluent) or 200 million WBCs are incubated for 2 or 24 h in culture medium containing 3 μM of an EGFR tyrosine kinase inhibitor or 0.03% DMSO. Total RNA from cell pellet is isolated using the RNeasy kit (Qiagen). mRNA is isolated using the oligotex mRNA purification kit (Qiagen). The quality of the obtained mRNA is tested by real time RT-PCR using beta-Actin primers (PE Applied Biosystems) with an amplicon size of 300 base pairs (bp). The total RNA is used as a reference to calculate the amount of mRNA-enrichment in the oligotex purified samples. The primers and probes are designed from mRNA sequences within the coding region or in the 3′ untranslated region (Table 2). For real time RT-PCR, RNA concentrations between 1 and 50 ng/reaction are used to obtain signals between 15-35 cycles. For each RNA preparation RT-PCR reactions are performed with and without reverse transcriptase to check for genomic DNA contamination. In all RNA samples tested, genomic DNA contamination is less than 1%. To normalize for variability in the initial concentration and quality of the total RNA, Glyceraldehyde-3-phosphate dehydrogenase (GAPDH) is used as an endogenous reference in all quantification experiments. For RT-PCR a one step, two-enzyme system is chosen. The TaqMan PCR Core Reagent Kit (PE #N808-0228) plus the reverse transcriptase MuLV (PE Biosystems # N808-0018) and RNase inhibitor (Roche Diagnostics # 799 025) are mixed as described in the manufacturers protocol. Triplicate measurements are done for target and for reference reactions. […] RT-PCR reactions are done with RNA concentrations of 2.5, 5, 10, 20, 40 and 80 ng per reaction. The absolute value of the slope of (log input amount) vs. ΔCT should be <0.1. The ΔCT value is determined by subtracting the average reference CT values from the average target CT values of the three measurements. Relative quantification is performed in triplicates, reference and target, using the RT-PCR protocol described above. […] Expression levels for the three genes, calculated relative to NCI-H520, show big differences between the various cell types (Table 5). […]

[2] = test system: A431 cells; experiment: UniGEM 1 cDNA array expression profile of A431 cells; format: cell-based, human; conditions: 24 hours
Method: The following tissue culture cells are chosen because of their EGFR expression status (Table 1). EGFR expression is measured by Western blotting, using anti-EGFR monoclonal antibodies from Transduction Labs (Lexington, Ky.). The cell lines are obtained from the ATCC (Rockville, […].). The cells are cultured in 5% CO2 at 37° C.
20 million tissue culture cells (about 80% confluent) or 200 million WBCs are incubated for 2 or 24 h in culture medium containing 3 μM of an EGFR tyrosine kinase inhibitor or 0.03% DMSO. Total RNA from cell pellet is isolated using the RNeasy kit (Qiagen). mRNA is isolated using the oligotex mRNA purification kit (Qiagen). The quality of the obtained mRNA is tested by real time RT-PCR using beta-Actin primers (PE Applied Biosystems) with an amplicon size of 300 base pairs (bp). The total RNA is used as a reference to calculate the amount of mRNA-enrichment in the oligotex purified samples.
Probes for the UniGEM hybridization are synthesized by Incyte Genomics (Palo Alto, Calif., USA). For each probe 200 ng mRNA (50 ng/μl) is shipped in dry ice. The results are analyzed using the Expressionist Software Package provided by GeneData.
Expression profiles (UniGEM V arrays) of 4 tumor cell lines with different EGFR expression status (A431, NCI-H596, NCI-H520 and MDA-MB-468) and of WBCs upon exposure of cells to 3 μM of COMPOUND A for 2 or 24 h are analyzed. As control, cells treated with DMSO for the same time period are used. […] The cDNA array hybridization is repeated with the UniGEM 1 array using the same mRNA (Table 3).

[3] = WBC, relative to DMSO-treated NCI-H520 calibrator

SMILES: C[C@@H](Nc1ncnc2[nH]c(-c3ccc(O)cc3)cc12)c1ccccc1 [COMPOUND A, (R)-6-(4-hydroxy-phenyl)-4-[(1-phenyl-ethyl)-amino]-7H-pyrrolo[2,3-d]pyrimidine]
- Relative Clusterin expression [1, 3]: 2.03 n-fold
- Relative TRAIL expression [1, 3]: 22.73 n-fold
- Relative VAC-beta expression [1, 3]: 2.16 n-fold
- TRAIL repression in WBCs ([1]; WBCs, versus DMSO): 2.5 fold
- Gene induction, Micro Array UniGEM 1: Acute phase serum amyloid A protein ([2]; 3 μM, RNA from Experiment 1): 4.4
- Gene induction, Micro Array UniGEM 1: Cathepsin H ([2]; 3 μM, RNA from Experiment 1): 2.2
- Gene induction, Micro Array UniGEM 1: Caveolin ([2]; 3 μM, RNA from Experiment 1): 3.4
- Gene induction, Micro Array UniGEM 1: Complement component 3 (C3) ([2]; 3 μM, RNA from Experiment 1): 3.1
- Gene induction, Micro Array UniGEM 1: Complement cytolysis inibitor (Clusterin) ([2]; 3 μM, RNA from Experiment 1): 2.7
- Gene induction, Micro Array UniGEM 1: DNA binding protein inhibitor ID-3 ([2]; 3 μM, RNA from Experiment 1): 2.1
- Gene induction, Micro Array UniGEM 1: Extracellular protein S1-5 ([2]; 3 μM, RNA from Experiment 1): 3.3
- Gene induction, Micro Array UniGEM 1: TGF-beta induced gene ([2]; 3 μM, RNA from Experiment 1): 2.1
- Gene induction, Micro Array UniGEM 1: TRAIL ([2]; 3 μM, RNA from Experiment 1): 3.0
- Gene induction, Micro Array UniGEM 1: VAC-beta (annexin VIII) ([2]; 3 μM, RNA from Experiment 1): 3.0
- Differential Expression (Balanced): Human D-type cyclin (CCND2) mRNA {IM359412} ([2]; GB Acc. No. AA010487, 3 μM, versus DMSO treated cells, negative numbers: repressed genes): −8.2
- Differential Expression (Balanced): ESTs {IM365120} ([2]; GB Acc. No. AA025124, 3 μM, versus DMSO treated cells): 2.7
- Differential Expression (Balanced): Human HE4 mRNA for extracellular protease {IM366323} ([2]; GB Acc. No. AA025750, 3 μM, versus DMSO treated cells): 2.6
- Differential Expression (Balanced): Human mRNA for precursor of epidermal growth factor receptor {IM469272} ([2]; GB Acc. No. AA026089, 3 μM, versus DMSO treated cells): 2.8
- Differential Expression (Balanced): Human cyclin-dependent protein kinase mRNA {IM366824} ([2]; GB Acc. No. AA029438, 3 μM, versus DMSO treated cells): 2.8
- Differential Expression (Balanced): Human extracellular protein (S1-5) mRNA {IM470007} ([2]; GB Acc. No. AA030000, 3 μM, versus DMSO treated cells): 3.3
- Differential Expression (Balanced): ESTs {IM471869} ([2]; GB Acc. No. AA035156, 3 μM, versus DMSO treated cells): 3.0
- Differential Expression (Balanced): Human nucleotide-binding protein mRNA; c {IM376052} ([2]; GB Acc. No. AA039353, 3 μM, versus DMSO treated cells, negative numbers: repressed genes): −3.5
- Differential Expression (Balanced): ESTs {IM485336} contains Alu repetitive elements ([2]; GB Acc. No. AA039628, 3 μM, versus DMSO treated cells, negative numbers: repressed genes): −6.8
- Differential Expression (Balanced): Human 5′-AMP-activated protein kinase; g {IM376178} ([2]; GB Acc. No. AA040600, 3 μM, versus DMSO treated cells, negative numbers: repressed genes): −4.1
- Differential Expression (Balanced): Human mRNA for pancreatic carcinoma marker {IM376296} (Trop-2) ([2]; GB Acc. No. AA041250, 3 μM, versus DMSO treated cells): 3.0
- Differential Expression (Balanced): Human complement component 3 (C3) gene {IM485717} ([2]; GB Acc. No. AA041549, 3 μM, versus DMSO treated cells): 3.1
- Differential Expression (Balanced): Human annexin VIII mRNA; complete cds. {IM376634} (VAC-beta) ([2]; GB Acc. No. AA046102, 3 μM, versus DMSO treated cells): 3.0
- Differential Expression (Balanced): Human mRNA for caveolin {IM488533} ([2]; GB Acc. No. AA047243, 3 μM, versus DMSO treated cells): 3.4
- Differential Expression (Balanced): Fibronectin {IM512287} ([2]; GB Acc. No. AA057694, 3 μM, versus DMSO treated cells, negative numbers: repressed genes): −8.8
- Differential Expression (Balanced): ESTs {IM377004} ([2]; GB Acc. No. AA057780, 3 μM, versus DMSO treated cells): 2.7
- Differential Expression (Balanced): TransformIng growth factor-beta induced gene product (BIGH3) ([2]; GB Acc. No. AA057802, 3 μM, versus DMSO treated cells): 2.1
- Differential Expression (Balanced): Human mRNA for cathepsin H (E.C.3.4.22.1) {IM489348} ([2]; GB Acc. No. AA058337, 3 μM, versus DMSO treated cells): 2.2
- Differential Expression (Balanced): Human fibronectin gene extra type III re {IM151144} ([2]; GB Acc. No. H03907, 3 μM, versus DMSO treated cells, negative numbers: repressed genes): −6.9
- Differential Expression (Balanced): ESTs {IM46265} ([2]; GB Acc. No. H09077, 3 μM, versus DMSO treated cells, negative numbers: repressed genes): −21.9
- Differential Expression (Balanced): Human ribosomal protein L5 pseudogene mRNA {IM50482} ([2]; GB Acc. No. H17614, 3 μM, versus DMSO treated cells, negative numbers: repressed genes): −3.6
- Differential Expression (Balanced): ESTs {IM172005} ([2]; GB Acc. No. H18621, 3 μM, versus DMSO treated cells, negative numbers: repressed genes): −3.1
- Differential Expression (Balanced): Human acute phase serum amyloid A protein {IM161456} ([2]; GB Acc. No. H25546, 3 μM, versus DMSO treated cells): 4.4
- Differential Expression (Balanced): Human TNF-related apoptosis inducing ligand TRAIL {IM203132} ([2]; GB Acc. No. H54629, 3 μM, versus DMSO treated cells): 4.0
- Differential Expression (Balanced): Human complement cytolysis inhibitor (CLI) mRNA; complete cds (Clusterin) ([2]; GB Acc. No. M25915, 3 μM, versus DMSO treated cells): 2.7
- Differential Expression (Balanced): ESTs {248032} ([2]; GB Acc. No. N53767, 3 μM, versus DMSO treated cells): 2.6
- Differential Expression (Balanced): Rat N-syndecan mRNA {IM26677} ([2]; GB Acc. No. R13994, 3 μM, versus DMSO treated cells): 2.9
- Differential Expression (Balanced): Human fibronectin (fn) 3′ coding region {IM136798} ([2]; GB Acc. No. R36450, 3 μM, versus DMSO treated cells, negative numbers: repressed genes): −4.7
- Differential Expression (Balanced): ESTs {IM23605} ([2]; GB Acc. No. R39436, 3 μM, versus DMSO treated cells): 2.6
- Differential Expression (Balanced): PUTATIVE LYMPHOCYTE G0/G1 SWITCH PROTEIN 2 {IM67939} ([2]; GB Acc. No. T52813, 3 μM, versus DMSO treated cells, negative numbers: repressed genes): −3.3
- Differential Expression (Balanced): ESTs {IM73785} ([2]; GB Acc. No. T54672, 3 μM, versus DMSO treated cells): 2.6
- Differential Expression (Balanced): ESTs {IM74546} ([2]; GB Acc. No. T59122, 3 μM, versus DMSO treated cells): 2.9
- Differential Expression (Balanced): Human mitosin mRNA; complete cds. {IM113765} ([2]; GB Acc. No. T76993, 3 μM, versus DMSO treated cells, negative numbers: repressed genes): −3.0
- Differential Expression (Balanced): DNA-BINDING PROTEIN INHIBITOR ID-3 {IM323946} ([2]; GB Acc. No. W46413, 3 μM, versus DMSO treated cells): 2.1
- Differential Expression (Balanced): Human nuclear orphan receptor LXR-alpha {IM357775} ([2]; GB Acc. No. W95433, 3 μM, versus DMSO treated cells, negative numbers: repressed genes): −3.0
